Patent US12668607B2, “Heterocyclic amide compound, preparation method therefor and use thereof” (SHANGHAI JEYOU PHARMACEUTICAL CO., LTD., priority 2019, dated 2026)
pEC50, pIC50: −log10 of the molar value.

Experiments:
[1] = tested on: THP1-Dual™ cells; experiment: THP-Dual in vitro binding assay (THP1-Dual reporter cells, Lucia luciferase/QUANTI-Luc); assay type: cell-based, human; details: 30 min compound exposure, wash, 18 h incubation, IF-α/β activity by QUANTI-Luc
Description: The THP1-Dual™ cells used in the assay (InvivoGen, Catalog code: thpd-nfis) were constructed by stable integration of two inducible reporter genes in the human monocyte-like cell line THP1. The promoter sequence of the secretory embryo alkaline phosphatase (SEAP) reporter gene comprised an IFN-β basal promoter, 5 copies of NF-κB coexpression transcriptional response elements (NF-κB consensus transcriptional response elements) at the upstream and 3 copies of c-Rel binding sites. The secreted luciferase (Lucia) reporter gene was driven by 5 interferon-stimulated response elements (IFN-stimulated response elements) and a basal promoter of ISG54, thus making it possible to study two major downstream signaling pathways of STING simultaneously: the NF KB pathway was studied by assaying the SEAP activity; and the IRF pathway was studied by assessing the activity of Lucia luciferase.
To each well of a 96-well plate were added 20 μL of reference compounds or the compounds to be detected followed by the addition of 180 μL of THP1-Dual™ cell-containing FBS-free RPMI-1640 culture medium (about 90,000 cells/well). After incubating at 37° C. for 30 min under 5% CO2, the plate was centrifuged at 1000 rpm for 10 min, the supernatant was discarded, and the plate was washed twice with RPMI-1640 at 200 μL/well, and incubated for 18 h with RPMI-1640 at 200 µL/well. IF-α/β activity was quantified using QUANTI-Luc™ prepared and used according to the manufacturer's instructions.

[2] = target: T1, human STING protein (Homo sapiens, UniProt Q86WV6, H232R); experiment: STING in vitro binding assay (fluorescence polarization, FP affinity assay); details: competition with 30 nM fluorescein-labeled c-di-GMP, 10 μM recombinant human wild-type STING C-terminal protein (aa 140-379), 30 min room temperature
T1 construct: from the 140th amino acid to the 379th amino acid; 6His-SUMO (N, cleaved yes); made in house
Method: Fluorescence polarization assay (FP assay) was used to detect the affinities of compounds to a human STING protein. The reaction system contained a certain amount of fluorescein labeled C-di-GMP and compounds to be detected with different concentrations, and when the C-terminal protein of the recombinant human STING was added, the two small molecules were competitively bound with the protein. The bound fluorescein-labeled c-di-GMP rotated slowly in the liquid phase, and at this point, the degree of fluorescence polarization detected was also high. The fluorescence polarization degree was in inverse relation with the concentrations and the affinities of the compounds to be detected. By detecting the magnitude of the polarized light in the reaction system, the affinities of the compounds to be detected to human STING could be accurately known.
The N-terminal of the recombinant STING protein was a 6His-SUMO sequence to facilitate correct protein folding and purification, and after protease cleavage, the C-terminal STING was used for FP assay.
In FP assay, a 384-well plate was used, with the fluorescein-labeled c-di-GMP with a final concentration of 30 nM, 10 μM human STING protein, and either reference compounds with different concentrations or the compounds to be detected added into 10 μL of the reaction system each well. The plate was centrifuged at 1000 g for 1 min, incubated at room temperature for 30 min in the dark and read with Envision.

[3] = tested on: colon cancer cells CT26; experiment: Drug efficacy evaluation in CT26 syngeneic mouse model; assay type: in vivo, Balb/C mice; details: CT26 subcutaneous tumors
Method: The compound efficacy evaluation was carried out by a CT26 syngeneic mouse model in this experiment. 3E5 colon cancer cells CT26 (ATCC-CRL-2638) were inoculated subcutaneously into 6-8 week-old Balb/C mice (Shanghai Lingchang Biotechnology Co., Ltd.), and the mice were randomly divided grouped, 6 mice per group when the tumor volume reached 100 mm^3. Intratumoral administration was performed on day 1 after grouping. Compound 1 was administered at a dose of 1 μg per mouse, 0.1 μg per mouse and 0.01 μg per mouse, respectively, for each group. Tumor volume measurements were taken three times a week after the start of administration. The calculation formula for tumor volume was: V=0.5a×b^2, with a and b representing the long and short diameters of the tumor, respectively. Each point is the mean and standard error of mean (SEM) of the tumor volume. Differences between control (saline) and administered groups were statistically analyzed using two-way ANOVA (statistical differences on day 15: Prism 8, ****p<0.0001).

T1 sequence (Q86WV6 140-379 H232R): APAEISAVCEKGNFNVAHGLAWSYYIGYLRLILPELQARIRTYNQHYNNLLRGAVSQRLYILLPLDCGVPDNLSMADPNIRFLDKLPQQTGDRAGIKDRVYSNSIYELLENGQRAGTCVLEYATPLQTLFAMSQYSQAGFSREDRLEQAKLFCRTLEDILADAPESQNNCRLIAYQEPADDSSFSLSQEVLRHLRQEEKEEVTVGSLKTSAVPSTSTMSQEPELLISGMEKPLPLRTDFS

Row | Compound | pEC50 ([1]; Homo sapiens) | pIC50 [2] | pEC50 [1] | tumor growth speed compared with the control group ([3]; intratumoral administration day 1, 1, 0.1 and 0.01 μg per mouse, two-way ANOVA day 15 ****p<0.0001 vs saline) | inhibition of tumor growth in mice (dose relation) ([3]; intratumoral, 1, 0.1 and 0.01 μg per mouse)
1 | CCn1nc(C)cc1C(=O)/N=c1/[nH]c2cc(C(N)=O)cc(OC)c2n1C/C=C/Cn1/c(=N/C(=O)c2cc(C)nn2CC)[nH]c2cc(C(N)=O)cc(OCCN3CCCC4(CCNC4)C3)c21 (centres unmarked) [Compound 6] | 5.68 | 5.66 | – | – | –
2 | CCn1nc(C)c2c1C(=O)/N=C1\Nc3cc(C(N)=O)cc(OCCCO[C@H]4[C@@H](OC)O[C@H](CO)[C@@H](O)[C@@H]4O)c3N1C/C=C/CN1/C(=N\C(=O)c3cc(C)nn3CCCCC2)Nc2cc(C(N)=O)cc(OC)c21 [Compound 5] | 7.22 | 5.82 | – | – | –
3 | Nc1ncnc2c1ncn2[C@@H]1O[C@@H]2COP(O)(=S)O[C@@H]3C(O)[C@@H](COP(O)(=S)O[C@H]2[C@H]1O)O[C@H]3n1cnc2c(N)ncnc21 (some centres unmarked) [ML RR-S2 CDA, reference compound] | – | – | 4.74 | – | –
4 | CCn1nc(C)cc1C(=O)/N=c1/[nH]c2cc(C(N)=O)cc(OCCCN3CCOCC3)c2n1C/C=C/Cn1/c(=N/C(=O)c2cc(C)nn2CC)[nH]c2cc(C(N)=O)cc(OCCCO[C@H]3[C@@H](OC)O[C@H](CO)[C@@H](O)[C@@H]3O)c21 [Compound 4] | 6.28 | 5.80 | – | – | –
5 | CCn1nc(C)cc1C(=O)/N=c1/[nH]c2cc(C(N)=O)cc(OC)c2n1C/C=C/Cn1/c(=N/C(=O)c2cc(C)nn2CC)[nH]c2cc(C(N)=O)cc(OCCCN3CC4(COC4)C3)c21 [Compound 7] | 7.10 | 5.42 | – | – | –

Continued by rising pEC50 ([1]; Homo sapiens), values first:

Row | pEC50 ([1]; Homo sapiens) | pIC50 [2] | pEC50 [1] | Compound | tumor growth speed compared with the control group ([3]; intratumoral administration day 1, 1, 0.1 and 0.01 μg per mouse, two-way ANOVA day 15 ****p<0.0001 vs saline) | inhibition of tumor growth in mice (dose relation) ([3]; intratumoral, 1, 0.1 and 0.01 μg per mouse)
6 | 7.40 | 5.43 | – | CCn1nc(C)cc1C(=O)/N=c1/[nH]c2cc(C(N)=O)cc(OC)c2n1C/C=C/Cn1/c(=N/C(=O)c2cc(C)nn2CC)[nH]c2cc(C(N)=O)cc(OCCCO[C@H]3[C@H](OC)O[C@H](CO)[C@H]3O)c21 [Compound 3] | – | –
7 | 7.68 | 6.40 | – | CCn1nc(C)cc1C(=O)/N=c1/[nH]c2cc(C(N)=O)cc(OC)c2n1C/C=C/Cn1/c(=N/C(=O)c2cc(C)nn2CC)[nH]c2cc(C(N)=O)cc(OCCCO[C@H]3[C@@H](OC)O[C@H](CO)[C@@H](O)[C@@H]3O)c21 [Compound 1] | significantly slowed down | dose-dependent
8 | 8.10 | 5.77 | – | CCn1nc(C)cc1C(=O)/N=c1/[nH]c2cc(C(N)=O)cc(OC)c2n1C/C=C/Cn1/c(=N/C(=O)c2cc(C)nn2CC)[nH]c2cc(C(N)=O)cc(OCCCOC(=O)[C@@H](N)C(C)C)c21 [Compound 2] | – | –
